# Reference: PubChem BioAssay (NCI)
#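 Five compound concentrations were applied to cells in 96-well plates for 48 hours; endpoints were derived by simple linear interpolation of the resulting dose-response curve. At the GI50, growth is halved. TGI denotes the concentration required for complete inhibition of growth.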
# Experiments:
# Experiment in all cases: DTP human tumour cell line panel, 48 h
# [1] = tested on: 786-0 renal
# [2] = tested on: HCT-15 colon
# [3] = tested on: M14 melanoma
# [4] = tested on: MOLT-4 leukemia
# [5] = tested on: NCI-H226 lung
# [6] = tested on: SF-268 CNS
# [7] = tested on: SF-539 CNS
# [8] = tested on: CAKI-1 renal
# [9] = tested on: TK-10 renal
# [10] = tested on: MCF7 breast
smiles,measurement,setting,value
O=C1CCC2(c3ccc(F)cc3)Nc3cc(Cl)ccc3N12 (stereo not drawn),TGI,[1],> 100 µM
same,TGI,[2],> 100 µM
same,TGI,[3],> 100 µM
same,TGI,[4],> 100 µM
same,TGI,[5],> 100 µM
same,TGI,[6],> 100 µM
same,TGI,[7],> 100 µM
CC(C)C(=O)NC(=S)Nc1ccc([N+](=O)[O-])cc1C#N,TGI,[1],> 100 µM
same,TGI,[8],> 100 µM
same,TGI,[2],> 100 µM
same,TGI,[3],> 100 µM
same,TGI,[4],> 100 µM
same,TGI,[5],> 100 µM
same,TGI,[6],> 100 µM
same,TGI,[7],> 100 µM
same,TGI,[9],> 100 µM
CCOC(=O)C1=C(OC(OCC)C(CC)[Se]c2ccccc2)CCCC1 (stereo not drawn),TGI,[1],28.9 µM
same,TGI,[8],> 100 µM
same,TGI,[2],41.2 µM
same,TGI,[3],34.2 µM
same,TGI,[4],52.1 µM
same,TGI,[5],61.3 µM
same,TGI,[6],41.6 µM
same,TGI,[7],35.4 µM
same,TGI,[9],> 100 µM
Cc1cc2c(cc1C)[n+](=O)c(C(=O)C/C(=N/NC(=O)CC#N)C(=O)Nc1ccccc1C(F)(F)F)c(C)n2[O-],TGI,[1],> 100 µM
same,TGI,[8],> 100 µM
same,TGI,[2],> 100 µM
same,TGI,[3],> 100 µM
same,TGI,[4],> 100 µM
same,TGI,[5],> 100 µM
same,TGI,[6],> 100 µM
same,TGI,[7],> 100 µM
same,TGI,[9],> 100 µM
C/C(CC(=O)Nc1cc(Cl)c(Cl)cc1Cl)=N\NC(N)=O,TGI,[1],> 100 µM
same,TGI,[3],> 100 µM
same,TGI,[4],> 100 µM
same,TGI,[5],> 100 µM
same,TGI,[6],> 100 µM
same,TGI,[7],> 100 µM
same,TGI,[9],> 100 µM
O=C1CCC(=O)N2CCCCN12,TGI,[1],> 100 µM
same,TGI,[8],> 100 µM
same,TGI,[2],> 100 µM
same,TGI,[3],> 100 µM
same,TGI,[4],> 100 µM
same,TGI,[5],> 100 µM
same,TGI,[6],> 100 µM
same,TGI,[7],> 100 µM
same,TGI,[9],> 100 µM
Nc1nc(Cl)c2ncn(Cc3ccc(C45CC6CC(CC(C6)C4)C5)c(O)c3)c2n1,GI50,[1],6.04 µM
same,TGI,[1],20 µM
same,GI50,[8],1.77 µM
same,TGI,[8],4.8 µM
same,GI50,[2],8.78 µM
same,TGI,[2],25.5 µM
same,GI50,[10],3.14 µM
same,TGI,[10],13 µM
same,GI50,[4],1.25 µM
same,TGI,[4],16.2 µM
same,GI50,[5],12 µM
same,TGI,[5],42.9 µM
same,GI50,[6],5.34 µM
same,TGI,[6],21.4 µM
same,GI50,[7],11.8 µM
same,TGI,[7],26.7 µM
same,GI50,[9],2.2 µM
same,TGI,[9],8.93 µM
Cc1cccc(C)c1NC(=O)C(=O)C1C(=O)NC(=O)NC1=O,TGI,[1],> 100 µM
same,TGI,[8],> 100 µM
same,TGI,[2],> 100 µM
same,TGI,[3],> 100 µM
same,TGI,[4],> 100 µM
same,TGI,[5],> 100 µM
same,TGI,[6],> 100 µM
same,TGI,[7],> 100 µM
same,TGI,[9],> 100 µM
COC12C=C(C)C(CC1)CC2C(=O)O (stereo not drawn),TGI,[1],> 100 µM
same,TGI,[8],> 100 µM
same,TGI,[2],> 100 µM
same,TGI,[3],> 100 µM
same,TGI,[4],> 100 µM
same,TGI,[5],> 100 µM
same,TGI,[6],> 100 µM
same,TGI,[7],> 100 µM
same,TGI,[9],> 100 µM
N#Cc1ccc(O)c(C2=NCC(c3cccc(Oc4ccccc4)c3)O2)c1 (stereo not drawn),GI50,[1],0.761 µM
same,TGI,[1],7.59 µM
same,GI50,[8],0.392 µM
same,TGI,[8],37.9 µM
same,GI50,[2],0.363 µM
same,TGI,[2],36.1 µM
same,GI50,[10],0.792 µM
same,TGI,[10],15.8 µM
same,GI50,[4],1.67 µM
same,TGI,[4],> 100 µM
same,GI50,[5],1.7 µM
same,TGI,[5],11.1 µM
same,GI50,[6],1.3 µM
same,TGI,[6],> 100 µM
same,GI50,[7],1.83 µM
same,TGI,[7],9.27 µM
CS(=O)(=O)c1ccc([C@H]2O[C@@H](CO)C[C@]2(O)c2ccc(S(C)(=O)=O)cc2)cc1,GI50,[1],> 100 µM
same,TGI,[1],> 100 µM
same,GI50,[8],> 100 µM
same,TGI,[8],> 100 µM
same,GI50,[2],> 100 µM
same,TGI,[2],> 100 µM
same,GI50,[10],> 100 µM
same,TGI,[10],> 100 µM
same,GI50,[4],> 100 µM
same,TGI,[4],> 100 µM
same,GI50,[5],> 100 µM
same,TGI,[5],> 100 µM
same,GI50,[6],> 100 µM
same,TGI,[6],> 100 µM
same,GI50,[7],> 100 µM
same,TGI,[7],> 100 µM
same,GI50,[9],> 100 µM
same,TGI,[9],> 100 µM
CSC(C1c2ccccc2N(c2ccc(C)cc2)C2=NC(=O)N(C)C(=O)C21Cl)S(=O)(=O)c1ccc(C)cc1 (stereo not drawn),TGI,[1],38.4 µM
same,TGI,[8],43.2 µM
same,TGI,[3],72.3 µM
same,TGI,[4],32 µM
same,TGI,[5],48.7 µM
same,TGI,[6],62.5 µM
same,TGI,[7],34.3 µM
same,TGI,[9],> 100 µM
COc1ccc(/C=C/CN(C)CCc2ccccc2)cc1OC,TGI,[1],> 100 µM
same,TGI,[2],> 100 µM
same,TGI,[4],> 100 µM
same,TGI,[5],> 100 µM
same,TGI,[6],> 100 µM
same,TGI,[9],> 100 µM
CCCCN=C(NC#N)NCCCC,TGI,[1],> 100 µM
same,TGI,[8],> 100 µM
same,TGI,[2],> 100 µM
same,TGI,[3],> 100 µM
same,TGI,[4],> 100 µM
same,TGI,[5],> 100 µM
same,TGI,[6],> 100 µM
same,TGI,[7],> 100 µM
same,TGI,[9],> 100 µM
CCC[CH2][Sn]1([CH2]CCC)[O]Cc2nc(C)ccc2[O]1,GI50,[1],5.04 µM
same,TGI,[1],16.8 µM
same,GI50,[8],2.36 µM
same,TGI,[8],9.03 µM
same,GI50,[2],10.1 µM
same,TGI,[2],21.9 µM
same,GI50,[3],10.9 µM
same,TGI,[3],23.5 µM
same,GI50,[4],3.04 µM
same,TGI,[4],10.7 µM
same,GI50,[5],14 µM
same,TGI,[5],27.1 µM
same,GI50,[7],12.1 µM
same,TGI,[7],24.5 µM
same,GI50,[9],3.97 µM
same,TGI,[9],14.7 µM
NC(CCC(=O)NC(CSSCCCCS(=O)O)C(=O)NCC(=O)O)C(=O)O (stereo not drawn),TGI,[1],> 100 µM
same,TGI,[8],> 100 µM
same,TGI,[2],> 100 µM
same,TGI,[3],> 100 µM
same,TGI,[4],> 100 µM
same,TGI,[6],> 100 µM
same,TGI,[7],> 100 µM
same,TGI,[9],> 100 µM
COC(=O)C1Cc2c(n(Cc3ccccc3)c3ccccc23)C(CCC(=O)O)N1C(C)C (stereo not drawn),TGI,[1],> 100 µM
same,TGI,[8],> 100 µM
same,TGI,[2],> 100 µM
same,TGI,[3],> 100 µM
same,TGI,[4],> 100 µM
same,TGI,[5],> 100 µM
same,TGI,[6],> 100 µM
same,TGI,[7],> 100 µM
same,TGI,[9],> 100 µM
O=C1O[C@@H](c2ccc3c(c2)OCO3)C2C(=O)O[C@@H](c3ccc4c(c3)OCO4)C12 (stereo partly drawn),TGI,[1],> 100 µM
same,TGI,[2],> 100 µM
same,TGI,[3],> 100 µM
same,TGI,[4],> 100 µM
same,TGI,[5],> 100 µM
same,TGI,[6],> 100 µM
same,TGI,[7],> 100 µM
same,TGI,[9],> 100 µM
CCC[CH2][Sn]([CH2]CCC)([O]C(=O)c1cccnc1SC)[O]C(=O)c1cccnc1SC,GI50,[1],0.67 µM
same,TGI,[1],1.98 µM
same,GI50,[2],1.04 µM
same,TGI,[2],2.3 µM
same,GI50,[3],1.04 µM
same,TGI,[3],2.29 µM
same,GI50,[4],0.149 µM
same,TGI,[4],0.929 µM
same,GI50,[5],0.883 µM
same,TGI,[5],2.18 µM
same,GI50,[6],0.65 µM
same,TGI,[6],2.01 µM
same,GI50,[7],1.2 µM
same,TGI,[7],2.49 µM
same,GI50,[9],0.527 µM
same,TGI,[9],1.69 µM
O=C1C2c3[nH]c4ccccc4c3C3CCCCCCC3C2C(=O)N1c1ccccc1 (stereo not drawn),TGI,[1],26.5 µM
same,TGI,[2],> 100 µM
same,TGI,[3],42.5 µM
same,TGI,[6],> 100 µM
same,TGI,[7],30.5 µM
same,TGI,[9],27 µM
CC(C)(CC(=O)Nc1ccccc1)C(=O)O,TGI,[1],> 100 µM
same,TGI,[8],> 100 µM
same,TGI,[2],> 100 µM
same,TGI,[3],> 100 µM
same,TGI,[10],> 100 µM
same,TGI,[4],> 100 µM
same,TGI,[5],> 100 µM
same,TGI,[7],> 100 µM
same,TGI,[9],> 100 µM
O=C(O)C(CO)NC(=O)n1c2ccccc2c2ccccc21 (stereo not drawn),TGI,[1],> 100 µM
same,TGI,[8],> 100 µM
same,TGI,[2],> 100 µM
same,TGI,[4],> 100 µM
same,TGI,[5],> 100 µM
same,TGI,[6],> 100 µM
same,TGI,[7],> 100 µM
same,TGI,[9],> 100 µM
